# Measured values taken from patent US4312861A, “Pharmaceutical compositions containing N-alkyl-N-(nuclearly-substituted) benzylamines having vasotonia-regulating activity” (Hoechst Aktiengesellschaft, priority 1974, dated 1982).
# Key:
# [1] = system: isolated guinea-pig heart; assay: Relative coronary blood-flow change in isolated guinea-pig heart (Langendorff)
# Protocol: (4) Relative coronary blood-flow change in an isolated guinea-pig heart.
# The tests were carried out according to the method of Langendorff (Pflugers Archiv. 61 (1895), page 219).
# In Table 5, the change in coronary blood flow after administration of various quantities of the test substance is compared with that after administration of the known compounds heptaminol and Aescin sodium salt.
# [2] = Toxicity in the mouse (Litchfield and Wilcoxon); type: in vivo; settings: mouse, in vivo
# Protocol: (6) Toxicity in the mouse
# Toxicity was determined according to Litchfield and Wilcoxon (J. Pharmacol. exp. Ther. 97 (1949), page 399) in the mouse. In comparison, the values with the known substance aescin sodium salt were determined. Comparative tests with 0.1% solution, of venous and optical compatibility on the rabbit yielded similar results.
# [3] = system: perfused rabbit ear; assay: Blood-flow change in perfused isolated rabbit ear, vaso-dilator activity (Ringer-Norfenefrin solution)
# Protocol: (3) Blood-flow change in an isolated rabbit ear
# The tests were carried out according to Krakow-Pissemski (Pflugers Archiv 151 (1913), page 583 and 156 (1914), page 426). In Table 5a the estimated values of the vaso-constrictor activity in Ringer solutions of varying concentrations are given and in Table 5b values for vasodilatory activity in Ringer-Norfenefrin solutions of varying concentrations are given. As a comparison, the values obtained with the known preparation aescin sodium are given.
# [4] = system: isolated portal vein; assay: Isolated rat's portal vein (Berti), increase in tonus
# Protocol: (2) Isolated rat's portal vein
# The tests on the rat's portal vein, an organ with its own rhythm, were performed according to the method of Berti et al (Arch. int. Pharmacodyn. 184 (1970), page 328). In Table 4, the increase in tonus at various adrenalin concentrations is given in milligrams. As a comparison, the values for the known substance heptaminol (=6-amino-2-methylheptane-2-ol) are also given.
# [5] = system: permeability of the capillaries; assay: Histamine rash test (modified Halpern), capillary permeability; type: in vivo; settings: 30 minutes before histamine
# Protocol: The test according to Halpern (Presse medicale 65 (1949), page 949) was used in modified form. The suppressive effect of the compounds according to the invention on the permeability of the capillaries was tested. The blue coloration induced by intravenous administration of trypan blue at two intracutaneous histamine injection points per animal, (trypan blue administered 2 minutes before the histamine), was estimated according to the following scale of values:
# indications of blue coloration
# clear blue coloration =4
# stong blue coloration =6
# The preceding evaluation was made from the combined effect at the two injection points.
# The test substances were administered i.p. 30 minutes before the histamine injection.
# [6] = system: writhing movements in the mouse; assay: Writhing test (Winter); type: in vivo; settings: 50 mg/kg p.o.
# Description: The analgesic activity of the compounds according to the invention were studied by the method of Winter et al (Proc. Soc. exp. Biol. Med, 111 (1962), page 544), in which the suppression of writhing movements in the mouse was observed.
# [7] = system: carrageenin oedema in the rat paw; assay: Suppression of carrageenin oedema in the rat paw (Siegmund); type: in vivo; settings: 200 mg/kg p.o.; 3 h p.a.
# Protocol: (7) Suppression of carrageenin oedema in the rat paw
# The inflammation-reducing and anti-oedematous effects on carrageenin and serotonin oedemas in the rat paw were studied according to Siegmund et al (Proc. Soc. exp. Biol. Med. 95 (1957), page 729). The values are given as percentages, based on the values obtained in control tests using a dummy procedure. In this way, the antiphlogistic activity of the substances according to the invention was tested.
# [8] = 10 μg (first figure where two are given)
# [9] = 30 μg (first figure where two are given)
# [10] = 100 μg (first figure where two are given)
smiles,measurement,setting,value
CCCCCCCNCc1c(C)cc(C)cc1C [compound 16],Relative change in coronary blood flow,[1]; [8],+55
same,Relative change in coronary blood flow,[1]; [9],+61
same,LD50,[2]; ip,50 to 100 mg/kg
CCCCCCCCNCc1c(C)cc(C)cc1C [compound 17],Relative change in coronary blood flow,[1]; [9],+138
same,LD50,[2]; ip,25 to 50 mg/kg
CCCCCCCCCNCc1c(C)cc(C)cc1C [compound 18],LD50,[2]; ip,50 to 100 mg/kg
Cc1cc(C)c(CNCCCC(C)C)c(C)c1 [compound 19],"Relative change in coronary blood flow, second figure after slash",[1]; 10 μg,-15
same,Relative change in coronary blood flow,[1]; [8],+30
same,"Relative change in coronary blood flow, second figure after slash",[1]; 30 μg,-10
same,Relative change in coronary blood flow,[1]; [9],+71
same,LD50,[2]; ip,100 to 250 mg/kg
COCCCNCc1c(C)cc(C)cc1C [compound 20],"Relative change in blood flow, vaso-dilator activity",[3]; 3 × 10^-5 g/ml,+30
same,"Relative change in blood flow, vaso-dilator activity",[3]; 10^-4 g/ml,+131
same,"Relative change in blood flow, vaso-dilator activity",[3]; 10^-5 g/ml,+4
same,"Relative change in blood flow, vaso-dilator activity",[3]; 10^-6 g/ml,+12
same,LD50,[2]; ip,50 to 100 mg/kg
CCOCCCNCc1c(C)cc(C)cc1C [compound 21],Relative change in coronary blood flow,[1]; [8],+22
same,Relative change in coronary blood flow,[1]; [9],+23
same,LD50,[2]; ip,50 to 100 mg/kg
CCCCCCOCCCNCc1c(C)cc(C)cc1C [compound 22],"Increase in tonus, isolated rat's portal vein",[4]; 10^-4 g/ml,+271 milligrams
same,"Increase in tonus, isolated rat's portal vein",[4]; 10^-5 g/ml,+225 milligrams
same,"Increase in tonus, isolated rat's portal vein",[4]; 10^-6 g/ml,+65 milligrams
same,Increase in vasotonus compared with heptaminol,[4]; in words,distinctly stronger increase in vasotonus than the comparison substance heptaminol
same,"Relative change in blood flow, vaso-dilator activity",[3]; 3 × 10^-5 g/ml,0
same,Relative change in coronary blood flow,[1]; [9],+109
same,"Histamine rash test, blue coloration score (0 = none, 2 = indications, 4 = clear, 6 = strong)",[5]; 1.0 mg/kg i.p.,2.6
same,"Histamine rash test, blue coloration score (0 = none, 2 = indications, 4 = clear, 6 = strong)",[5]; 3.0 mg/kg i.p.,1.3
same,LD50,[2]; ip,25 to 50 mg/kg
Cc1cc(C)c(CNCCCOC(C)C)c(C)c1 [compound 23],LD50,[2]; ip,100 to 250 mg/kg
CCCC(C)NCc1c(C)cc(C)cc1C (stereo not shown) [compound 24],LD50,[2]; ip,50 to 100 mg/kg
CCCCC(C)NCc1c(C)cc(C)cc1C (stereo not shown) [compound 25],"Relative change in blood flow, vaso-dilator activity",[3]; 3 × 10^-6 g/ml,+39
same,"Relative change in blood flow, vaso-dilator activity",[3]; 10^-4 g/ml,+147
same,"Relative change in blood flow, vaso-dilator activity",[3]; 10^-5 g/ml,+93
same,"Relative change in blood flow, vaso-dilator activity",[3]; 10^-6 g/ml,+1
same,"Relative change in blood flow, vaso-dilator activity",[3]; 10^-7 g/ml,+3
same,"Histamine rash test, blue coloration score (0 = none, 2 = indications, 4 = clear, 6 = strong)",[5]; 3.0 mg/kg i.p.,1.3
same,"Histamine rash test, blue coloration score (0 = none, 2 = indications, 4 = clear, 6 = strong)",[5]; 10.0 mg/kg i.p.,1.4
same,LD50,[2]; ip,50 to 100 mg/kg
same,Suppression of writhing movements,[6],46%
CCC(C)CC(C)NCc1c(C)cc(C)cc1C (stereo not shown) [compound 28],"Increase in tonus, isolated rat's portal vein",[4]; 10^-4 g/ml,+84 milligrams
same,"Increase in tonus, isolated rat's portal vein",[4]; 10^-5 g/ml,+57 milligrams
same,"Increase in tonus, isolated rat's portal vein",[4]; 10^-6 g/ml,+21 milligrams
same,"Relative change in blood flow, vaso-dilator activity",[3]; 3 × 10^-5 g/ml,+47
same,Relative change in coronary blood flow,[1]; [9],+118
same,Relative change in coronary blood flow,[1]; [10],+226
same,"Histamine rash test, blue coloration score (0 = none, 2 = indications, 4 = clear, 6 = strong)",[5]; 3.0 mg/kg i.p.,2.9
same,LD50,[2]; ip,50 to 100 mg/kg
Cc1cc(C)c(CNC(C)CCCC(C)C)c(C)c1 (stereo not shown) [compound 29],"Relative change in blood flow, vaso-dilator activity",[3]; 3 × 10^-5 g/ml,+19
same,Relative change in coronary blood flow,[1]; [9],+111
same,"Histamine rash test, blue coloration score (0 = none, 2 = indications, 4 = clear, 6 = strong)",[5]; 1.0 mg/kg i.p.,3.3
same,"Histamine rash test, blue coloration score (0 = none, 2 = indications, 4 = clear, 6 = strong)",[5]; 3.0 mg/kg i.p.,1.7
same,LD50,[2]; ip,50 to 100 mg/kg
CCCCCC(C)N(Cc1c(C)cc(C)cc1C)CP(C)(C)=O (stereo not shown) [compound 30],"Relative change in blood flow, vaso-dilator activity",[3]; 3 × 10^-5 g/ml,+67
same,"Relative change in blood flow, vaso-dilator activity",[3]; 10^-5 g/ml,+79
same,Relative change in coronary blood flow,[1]; [8],+158
same,Relative change in coronary blood flow,[1]; [9],+211
same,Relative change in coronary blood flow,[1]; [10],+232
same,LD50,[2]; ip,100 to 250 mg/kg
Cc1cc(C)c(CNC(C)CCCC(C)(C)O)c(C)c1 (stereo not shown) [compound 31],"Relative change in blood flow, vaso-dilator activity",[3]; 10^-4 g/ml,+87
same,"Relative change in blood flow, vaso-dilator activity",[3]; 10^-5 g/ml,+41
same,"Relative change in blood flow, vaso-dilator activity",[3]; 10^-6 g/ml,+12
same,"Histamine rash test, blue coloration score (0 = none, 2 = indications, 4 = clear, 6 = strong)",[5]; 10.0 mg/kg i.p.,2.6
same,LD50,[2]; iv,50 to 100 mg/kg
same,Suppression of carrageenin oedema in the paw (antiphlogistic activity),[7],26%
